Experimental data reported in patent publication US7098332B2, “5,8-Dihydro-6H-pyrido[2,3-d]pyrimidin-7-ones” (Hoffmann-La Roche Inc., priority 2002, dated 2006).

Assays:
KDR = target: T1, KDR (Homo sapiens, UniProt P35968); test: KDR kinase HTRF assay; assay type: biochemical; conditions: 0.3 mM ATP
T1 construct: EEE tag
Description: (§1) To determine inhibition of KDR, FGFR, EGFR, and PDGFR activity, kinase assays were conducted using an HTRF (Homogeneous Time Resolved Fluorescence) assay. This assay is described in A. J. Kolb et. al., Drug Discovery Today, 1998, 3(7), p 333.
Prior to kinase reaction, recombinant EEE-tagged KDR was activated in the presence of activation buffer (50 mM HEPES, pH 7.4, 1 mM DTT, 10% glycerol, 150 mM NaCl, 0.1 mM EDTA, 26 mM MgCl2, and 4 mM ATP). The enzyme was incubated at 4° C. for 1 hour.
(§2) Kinase activity assays were performed in 96-well polypropylene plates (Falcon) with a total volume of 90 μL in each well. Each well contained 1 μM KDR substrate (Biotin-EEEEYFELVAKKKK), 1 nM activated KDR, and a test compound with one of 8 assay concentrations ranging from 100 μM to […] (1:5 serial dilution). The kinase activity assay was done in the presence of 100 mM HEPES, pH 7.4, 1 mM DTT, 0.1 mM Na2VO4, 25 mM MgCl2, 50 mM NaCl (from KDR stock solution), 1% DMSO (from compound), 0.3 mM ATP (at Km concentration) and 0.02% BSA. The reaction was incubated at 37° C. for 30 minutes. To stop the KDR reaction, 72 μL of reaction mixture was transferred into a STOP plate containing 18 μL of revelation buffer (20 mM EDTA, 50 mM HEPES, pH 7.4, 0.02% BSA, 10 nM Eu-labelled anti-pY antibody (final conc. 2 nM), and 100 nM streptavidin (final conc. 20 nM)). After mixing, 35 μL of solution was transferred into duplicate wells of a 384-well black plate (Costar), and read at 615/665 nm on a Wallac Victor 5 reader.
(§3) Compound IC50 values were determined from duplicate sets of data, and calculated by using Excel and fitting data to equation Y=[(a−b)/{1+(X/c)^d]+b, where a and b are enzyme activity in the presence of no test inhibitor compound and an infinite amount of inhibitor test compound, respectively, c is the IC50 and d is the hill constant of the compound response. The IC50 value is the concentration of test compound that reduces by 50% the enzyme activity under the test conditions described.

FGFR = target: T2, FGFR; test: FGFR kinase HTRF assay; assay type: biochemical; conditions: 10 μM ATP
T2 construct: fused on or other part: GST tag
Description: as §1, §2
FGFR, EGFR, and PDGFR activity assays were carried out as described above for the KDR activity assay with the following differences. GST-tagged FGFR enzyme was activated at room temperature for 1 hour in the following activation buffer: 100 mM HEPES, pH 7.4, 50 mM NaCl, 20 mM MgCl2, and 4 mM ATP. The kinase activity assay was performed with 1 μM substrate (Biotin-EEEEYFELV), 1.5 nM activated FGFR, and test compound in the presence of 100 mM HEPES, 1 mM DTT, 0.4 mM MgCl2, 0.4 mM MnCl2, 50 mM NaCl, 1% DMSO, 10 μM ATP (Km=8.5 μM for FGFR), 0.1 mM Na2VO4, and 0.02% BSA, in a total volume of 90 μL. The rest of the assay was performed in the same manner as KDR assay.
as §3

EGFR = EGFR (Homo sapiens, UniProt P00533); test: EGFR kinase HTRF assay; assay type: biochemical; conditions: 0.5 μM ATP
Description: as §1, §2
(§4) The EGFR kinase activity assay was performed with 1 μM substrate (Biotin-EEEEYFELV), 1.5 nM EGFR, test compounds, 100 mM HEPES, pH 7.4, 1 mM DTT, 5 mM MgCl2, 2 mM MnCl2, 1% DMSO, 0.5 μM ATP (Km for EGFR), 0.1 mM Na2VO4, and 0.02% BSA. The rest of the assay was performed in the same manner as the KDR assay.
as §3

PDGFR = PDGFR kinase HTRF assay; assay type: biochemical; conditions: 2.3 μM ATP
Description: as §1, §2
as §4, with “PDGFR” for “EGFR”, “1.0” for “1.5”, “PDGFR,” for “EGFR,”, “2.3” for “0.5”, “PDGFR),” for “EGFR),”
as §3

[1] = test system: Human umbilical vein endothelial cells; test: VEGF-stimulated HUVEC proliferation assay (BrdU); assay type: cell-based; conditions: VEGF 20 ng per mL, BrdU labeling, read-out: HUVEC/VEFG IC50
Description: (§5) The antiproliferative activity of test-compounds of this invention in cell-based assays was evaluated by BrdU assay using the BrdU kit (Roche Biochemicals 1-647-229). Human umbilical vein endothelial cells (Clonetics CC-2519) were cultured in EGM-2 (Clonetics CC-3162) medium and seeded at 10000 cells per well in a volume of 200 μL of EGM-2 (Clonetics CC-3162) media in a 96-well flat bottom plates (Costar 3595) overnight. After 24 hours of growth at 37° C. with 5% CO2, the incubation media was removed slowly by aspiration and the content of each well was washed with 300 μL pre-warmed EBM-2 (Clonetics CC-3156) containing 50 μg per mL of gentamycin and 50 ng per mL of amphotercin-B (Clonetics CC-4083). […]
(§6) After 24 hour exposure to the test compounds, the cells were labeled with BrdU (Roche Biochemicals 1-647-229), by adding 20 μL per well of BrdU labeling reagent that has been diluted (1:100) in serum starvation medium. […] The plates were read at 450 nm with reference wavelength of 650 nm. The percent inhibition for each test compound was calculated by subtracting the absorbency of the blank (no cells) wells from all wells, then subtracting the division of the average absorbency of each test duplicate by the average of the controls from 1. […] The IC50 is determined from the linear regression of a plot of the logarithm of the concentration versus percent inhibition.

[2] = test system: Human umbilical vein endothelial cells; test: FGF-stimulated HUVEC proliferation assay (BrdU); assay type: cell-based; conditions: FGF 5 ng per mL, BrdU labeling, read-out: HUVEC/bFGFR IC50
Description: as §5, §6

Measured: IC50

T1 sequence (P35968 20-1356): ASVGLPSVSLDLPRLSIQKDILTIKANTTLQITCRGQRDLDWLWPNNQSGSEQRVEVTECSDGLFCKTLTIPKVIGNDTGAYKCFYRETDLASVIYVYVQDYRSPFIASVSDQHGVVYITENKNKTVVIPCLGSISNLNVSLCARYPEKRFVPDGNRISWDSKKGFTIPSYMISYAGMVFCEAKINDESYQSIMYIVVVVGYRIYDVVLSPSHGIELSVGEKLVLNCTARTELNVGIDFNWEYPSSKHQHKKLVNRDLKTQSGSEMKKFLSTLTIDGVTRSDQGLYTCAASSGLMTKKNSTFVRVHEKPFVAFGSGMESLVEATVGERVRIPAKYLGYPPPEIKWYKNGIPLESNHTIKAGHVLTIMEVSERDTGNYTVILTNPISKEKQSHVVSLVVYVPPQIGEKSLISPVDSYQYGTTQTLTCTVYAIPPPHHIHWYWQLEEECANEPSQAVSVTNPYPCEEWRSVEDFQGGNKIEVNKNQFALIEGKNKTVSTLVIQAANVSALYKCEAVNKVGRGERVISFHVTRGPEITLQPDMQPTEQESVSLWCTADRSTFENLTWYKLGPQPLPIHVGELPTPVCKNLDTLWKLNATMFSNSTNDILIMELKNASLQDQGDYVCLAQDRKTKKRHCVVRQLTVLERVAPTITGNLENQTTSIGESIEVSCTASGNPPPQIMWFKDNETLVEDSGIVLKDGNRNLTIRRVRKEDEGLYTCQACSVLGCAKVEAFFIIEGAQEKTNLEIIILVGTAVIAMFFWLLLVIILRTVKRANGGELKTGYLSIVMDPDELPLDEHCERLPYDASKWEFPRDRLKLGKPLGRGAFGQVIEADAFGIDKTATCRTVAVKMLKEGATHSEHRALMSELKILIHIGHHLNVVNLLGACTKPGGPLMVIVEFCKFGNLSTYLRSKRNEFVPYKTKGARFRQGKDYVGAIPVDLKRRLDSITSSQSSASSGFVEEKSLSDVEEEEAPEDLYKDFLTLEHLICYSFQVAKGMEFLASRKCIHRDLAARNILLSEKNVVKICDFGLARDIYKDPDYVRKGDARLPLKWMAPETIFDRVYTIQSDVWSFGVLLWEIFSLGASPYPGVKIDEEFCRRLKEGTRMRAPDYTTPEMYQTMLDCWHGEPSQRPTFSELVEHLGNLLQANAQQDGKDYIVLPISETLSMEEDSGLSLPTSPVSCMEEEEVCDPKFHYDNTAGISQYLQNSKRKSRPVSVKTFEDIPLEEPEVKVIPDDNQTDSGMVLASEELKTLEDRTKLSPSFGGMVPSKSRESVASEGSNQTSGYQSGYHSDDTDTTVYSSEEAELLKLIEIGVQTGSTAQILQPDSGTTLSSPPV
EGFR, sequence (P00533 25-1210, species assumed): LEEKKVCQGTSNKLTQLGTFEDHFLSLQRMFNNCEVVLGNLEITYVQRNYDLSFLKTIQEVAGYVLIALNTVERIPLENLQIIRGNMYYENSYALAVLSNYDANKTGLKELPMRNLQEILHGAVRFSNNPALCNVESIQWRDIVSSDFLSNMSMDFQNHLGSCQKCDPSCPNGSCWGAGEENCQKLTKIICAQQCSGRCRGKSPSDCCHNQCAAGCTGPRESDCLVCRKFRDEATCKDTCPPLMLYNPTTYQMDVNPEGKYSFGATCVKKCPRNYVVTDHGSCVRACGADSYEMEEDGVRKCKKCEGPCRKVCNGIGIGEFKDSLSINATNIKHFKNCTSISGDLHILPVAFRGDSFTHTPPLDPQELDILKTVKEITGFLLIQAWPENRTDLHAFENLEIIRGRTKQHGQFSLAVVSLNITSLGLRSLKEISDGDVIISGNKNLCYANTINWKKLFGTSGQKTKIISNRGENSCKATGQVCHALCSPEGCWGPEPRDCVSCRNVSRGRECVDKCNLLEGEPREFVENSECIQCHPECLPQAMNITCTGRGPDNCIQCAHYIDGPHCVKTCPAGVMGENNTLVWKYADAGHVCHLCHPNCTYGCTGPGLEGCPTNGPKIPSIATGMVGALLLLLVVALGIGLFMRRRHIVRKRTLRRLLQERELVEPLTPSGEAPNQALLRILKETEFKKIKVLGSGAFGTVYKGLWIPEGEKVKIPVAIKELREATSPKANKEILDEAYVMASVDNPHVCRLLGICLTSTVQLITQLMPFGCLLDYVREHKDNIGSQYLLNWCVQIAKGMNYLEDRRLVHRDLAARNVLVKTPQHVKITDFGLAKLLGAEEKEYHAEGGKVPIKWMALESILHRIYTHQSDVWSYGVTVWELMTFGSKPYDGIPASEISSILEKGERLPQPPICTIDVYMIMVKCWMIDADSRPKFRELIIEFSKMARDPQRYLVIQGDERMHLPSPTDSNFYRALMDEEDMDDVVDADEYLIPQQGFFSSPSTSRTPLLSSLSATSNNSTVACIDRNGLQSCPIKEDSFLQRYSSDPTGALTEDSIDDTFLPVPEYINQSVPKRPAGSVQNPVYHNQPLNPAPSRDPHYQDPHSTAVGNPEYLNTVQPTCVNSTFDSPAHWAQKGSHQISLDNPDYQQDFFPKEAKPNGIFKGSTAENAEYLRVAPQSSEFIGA

COc1cc(OC)cc(C2Cc3cnc(Nc4ccccc4)nc3N(c3ccccc3)C2=O)c1 (stereo not drawn) [Example 3d, 6-(3,5-Dimethoxy-phenyl)-8-phenyl-2-phenylamino-5,8-dihydro-6H-pyrido[2,3-d]pyrimidin-7-one]
< 10 µM: all assays above
